Measurements as given in US10730878B2, “Fused quinoline compounds as PI3K/mTOR inhibitors” (ADVENCHEN PHARMACEUTICALS, LLC, priority 2015, dated 2020).

Experiments:
mTor = target: T1, mTor (Homo sapiens, UniProt P42345); assay: mTor kinase inhibition, % activity at 0.03 μM (kinases panel screening); format: biochemical; settings: 0.03 μM compound
T1 construct: purchased Millipore/Merck KGA of Europe (panel screening service)
Source text: (§1) In vitro kinase inhibition activities included Pi3k and mTor activities can be tested with Millipore/Merck KGA of Europe in their kinases panel screening. Animal antitumor activity testing can be conducted by various cancer xenograft models for a compound of formula I. […]

pi3K = pi3K kinase inhibition, % activity at 0.03 μM (kinases panel screening); format: biochemical; settings: 0.03 μM compound
Source text: as §1

mTor % activity @0.03 μM (mTor): 27%
pi3K % activity @0.03 μM (pi3K): 88%
Substance: N-{5-[16-(4-tert-butylphenyl)-8,11,13,14,16-pentaazatetracyclo[8.6.0.0^2,^7.0^11,^1^5]hexadeca-1(10),2,4,6,8,12,14-heptaen-4-yl]pyridin-2-yl}-2-(pyrrolidin-1-yl)acetamide
